Values joined by “and” are separate entries in the source; they are usually repeats but may differ in a detail not shown here. Equal values may be shown once. Where a SMILES comes first, the peptide text is derived from it. Where no end group is shown, it is not given here. The star is where a group is joined. Myristoyl = CCCCCCCCCCCCCC(=O)*
Tests used:
[1] = tested on: ozone-induced neutrophil migration; experiment: Mouse model of ozone-induced COPD: neutrophil migration, IL-6, KC, IFNγ in BAL fluid; assay type: in vivo, mice; details: for Concentration of IFNγ in BAL fluid / Concentration of KC in BAL fluid / Concentration of IL-6 in BAL fluid: 25 μL 1.0 mM peptide intratracheal 30 min before 2 h ozone; for Concentration of IFNγ in BAL fluid: PBS+ozone 8.6, forced air 5.0; for Concentration of KC in BAL fluid: PBS+ozone 466.6, forced air 36.3; for Concentration of IL-6 in BAL fluid: PBS+ozone 1041.3, forced air 43.2
Experimental: Ten-week-old Balb/C female mice were obtained from Charles River laboratories and housed under NIH guidelines in groups of 5 per cage. The animals received standard rodent diet and filtered water ad libitum. Three treatment groups of mice, 5 animals in each group, were each anesthetized by intraperitoneal injection of Ketamine (100 mg/kg) and Xylazine (20 mg/kg) and then pretreated by intratracheal administration with 25 μL of either PBS alone, or a solution of 1.0 mM MANS peptide in PBS, or a solution of a 1.0 mM of an acetylated MANS-fragment-peptide Ac-[…] designated as acetylated SEQ ID NO: 106 in PBS. After 30 minutes, the animals were then placed in the appropriate custom-made chamber for ozone or forced air exposures. The animals were exposed to ozone for 2 hours (at ozone concentrations of 1-10 ppm by a slightly modified method described by Haddad et al, 1995. (Haddad E-B, Salmon M, Sun J, Liu S, Das A, Adcock I, Barnes P J, and Chung K F, FEBS Letters, 363:285-288, 1995). The ozone was generated using an ozone generator apparatus model OL80F/B from OzoneLab, Burton, British Columbia, Canada. Ozone concentration was continuously monitored using a Teledyne Photometric 03 Analyzer (model 400E, Teledyne Instruments, City of Industry, CA). Two additional groups of mice, each without any pretreatment, were either exposed to ozone under the same conditions or exposed to forced air under conditions similar to the ozone treatment group but absent ozone. After exposure, the animals were sacrificed by exsanguination and the lungs were serially lavaged 2 times with 1.0 mL aliquots of PBS. The collected bronchoalveolar lavage (BAL) fluid was centrifuged to remove the cells for subsequent counting and differential analysis. Recovered lavage fluid was used for protein and additional analysis of IL-6, IFNγ, and KC (murine IL-8 analog) by ELISA assay (assay kits obtained from R&D Systems, Minneapolis, MN).
The percent inhibition of neutrophil migration into the BAL fluid as a function of treatment groups and relative to a control group treated with PBS alone are provided in the table.

[2] = tested on: MARCKS phosphorylation in NHBE cells; experiment: MARCKS phosphorylation in NHBE cells, radiolabeled immunoprecipitation assay; assay type: cell-based, human; details: 100 nM PMA, NHBE cells
Experimental: Radiolabeled Immunoprecipitation Assay—When labeling with [^32P]phosphate, cells were preincubated for 2 h in phosphate-free Dulbecco's modified Eagle's medium containing 0.2% bovine serum albumin and then labeled with 0.1 mCi/ml [^32P]orthophosphate (9000 Ci/mmol, PerkinElmer Life Sciences) for 2 h. For labeling with [^3H]myristic acid or 3H-amino acids, cells were incubated overnight in medium containing 50 μCi/ml [^3H]myristic acid (49 Ci/mmol, PerkinElmer Life Sciences) or 0.2 mCi/ml [^3H]leucine (159 Ci/mmol, PerkinElmer Life Sciences) plus 0.4 mCi/ml [^3H]proline (100 Ci/mmol, PerkinElmer Life Sciences). Following labeling, cells were exposed to stimulatory reagents for 5 min. When an inhibitor was used, cells were preincubated with the inhibitor for 15 min prior to stimulation. At the end of the treatments, cells were lysed in a buffer containing 50 mM Tris-HCl (pH 7.5), 150 mM NaCl, 1 mM EDTA, 10% glycerol, 1% Nonidet P-40, 1 mM phenylmethylsulfonyl fluoride, 1 mM benzamidine, 10 μg/ml pepstatin A, and 10 μg/ml leupeptin. Trichloroacetic acid precipitation and scintillation counting may determine the radiolabeling efficiency in each culture. Immunoprecipitation of MARCKS protein was carried out according to the method of Spizz and Blackshear using cell lysates containing equal counts/min. Spizz et al., J. Biol. Chem. 271, 553-562 (1996). Precipitated proteins were resolved by 8% SDS-polyacrylamide gel electrophoresis and visualized by autoradiography. Anti-human MARCKS antibody (2F12) and nonimmune control antibody (6F6) were used in this assay.
To assess MARCKS or MARCKS-associated protein complexes in different subcellular fractions, radiolabeled and treated cells were scraped into a homogenization buffer (50 mM Tris-HCl (pH 7.5), 10 mM NaCl, 1 mM EDTA, 1 mM phenylmethylsulfonyl fluoride, 1 mM benzamidine, 10 μg/ml pepstatin A, 10 μg/ml leupeptin) and then disrupted by nitrogen cavitation (800 pounds/square inch for 20 min at 4° C.). Cell lysates were centrifuged at 600×g for 10 min at 4° C. to remove nuclei and unbroken cells. Post-nuclear supernatants were separated into membrane and cytosol fractions by ultracentrifugation at 400,000×g for 30 min at 4° C. The membrane pellet was solubilized in the lysis buffer by sonication. Immunoprecipitation was then carried out as described above.

[3] = after ozone exposure, vs. PBS control, listed as acetylated SEQ ID NO:106

| Molecule | Concentration of IFNγ in BAL fluid [1] | Concentration of KC in BAL fluid [1] | Concentration of IL-6 in BAL fluid [1] | % Inhibition of neutrophil migration into BAL fluid ([1]; Balb/C mice, intratracheal pretreatment with 25 μL of 1.0 mM peptide in PBS 30 minutes before 2 hours ozone exposure, relative to control group treated with PBS alone) [%] | effect on interferon-γ levels ([1]; after ozone exposure) | reduced neutrophil cell infiltration in the BAL fluid after ozone exposure ([1]; vs. PBS control) | increase in MARCKS phosphorylation [2] | diminished IL-6 levels / inhibition of IL-6 levels in BAL fluid [1, 3] | diminished KC concentrations / inhibition of KC levels in BAL fluid [1, 3] |
| --- | --- | --- | --- | --- | --- | --- | --- | --- | --- |
| CCCCCCCCCCCCCC(=O)NCC(=O)N[C@@H](C)C(=O)N[C@@H](CCC(N)=O)C(=O)N[C@@H](Cc1ccccc1)C(=O)N[C@@H](CO)C(=O)N[C@@H](CCCCN)C(=O)N[C@H](C(=O)N[C@@H](C)C(=O)N[C@@H](C)C(=O)N[C@@H](CCCCN)C(=O)NCC(=O)N[C@@H](CCC(=O)O)C(=O)N[C@@H](C)C(=O)N[C@@H](C)C(=O)N[C@@H](C)C(=O)N[C@@H](CCC(=O)O)C(=O)N[C@@H](CCCNC(=N)N)C(=O)N1CCC[C@H]1C(=O)NCC(=O)N[C@@H](CCC(=O)O)C(=O)N[C@@H](C)C(=O)N[C@@H](C)C(=O)N[C@H](C(=O)N[C@@H](C)C(=O)O)C(C)C)[C@@H](C)O [MANS] (Myristoyl-GAQFSKTAAKGEAAAERPGEAAVA-OH; C-terminus assumed) | approximately 7.4 pg/mL | approximately 183.6 pg/mL | approximately 364.5 pg/mL | 93.0 | little effect | 93%±10% |  |  |  |
| CCCCCCCCCCCCCC(=O)O[C@@H]1[C@@H](C)[C@@]2(O)[C@@H](C=C(CO)C[C@]3(O)C(=O)C(C)=C[C@@H]23)[C@@H]2C(C)(C)[C@]12OC(C)=O [PMA, phorbol 12-myristate 13-acetate] |  |  |  |  |  |  | 3-4 fold |  |  |
| Ac-GAQFSKTAAK [Ac-GAQFSKTAAK] | approximately 3.6 pg/mL | approximately 159.7 pg/mL | approximately 130.4 pg/mL |  | little effect | 81%±10% |  | 91.3%±15% and ~91% | 71.3%±10% and ~71% |

Source: patent US20230293629A1, “METHODS FOR ATTENUATING RELEASE OF INFLAMMATORY MEDIATORS AND PEPTIDES USEFUL THEREIN” (BIOMARCK PHARMACEUTICALS LTD., priority 2006, published 2023)
